Measurements: article PMC8869338 (Biosensors, 2022)

Tested on: T1, RsD2HGDH
T1 construct: gene D2HGDH
Type: biochemical, Ralstonia solanacearum
Settings: free enzyme; 100 µM DCIP, 200 µM PMS, 50 mM PB pH 7.0 (assay of b15), 25 °C

O=C(O)CC[C@@H](O)C(=O)O [D2HG]
Km: 433 µM
